This test concerns the target T1, F508del (Homo sapiens, UniProt P13569, DEL508-508).
T1 construct: expressed in transfected cells
Nature of the test: Protocol 1: membrane potential optical assay (FLIPR III, voltage sensing dye), identification of potentiator compounds. The class given is cell-based. The conditions noted are these: Table 3, compounds of Table 1. The method in brief:
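NIH3T3 F508del cells, 27° C × 24 hrs; compound/DMSO pretreat → redistribution dye load → single forskolin addition with Cl⁻ gradient (gluconate-substituted bath, HEPES pH 7.4). FLIPR III membrane-potential fluorescence read.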
T1 sequence (P13569 with tags, fused parts or gaps DEL508-508): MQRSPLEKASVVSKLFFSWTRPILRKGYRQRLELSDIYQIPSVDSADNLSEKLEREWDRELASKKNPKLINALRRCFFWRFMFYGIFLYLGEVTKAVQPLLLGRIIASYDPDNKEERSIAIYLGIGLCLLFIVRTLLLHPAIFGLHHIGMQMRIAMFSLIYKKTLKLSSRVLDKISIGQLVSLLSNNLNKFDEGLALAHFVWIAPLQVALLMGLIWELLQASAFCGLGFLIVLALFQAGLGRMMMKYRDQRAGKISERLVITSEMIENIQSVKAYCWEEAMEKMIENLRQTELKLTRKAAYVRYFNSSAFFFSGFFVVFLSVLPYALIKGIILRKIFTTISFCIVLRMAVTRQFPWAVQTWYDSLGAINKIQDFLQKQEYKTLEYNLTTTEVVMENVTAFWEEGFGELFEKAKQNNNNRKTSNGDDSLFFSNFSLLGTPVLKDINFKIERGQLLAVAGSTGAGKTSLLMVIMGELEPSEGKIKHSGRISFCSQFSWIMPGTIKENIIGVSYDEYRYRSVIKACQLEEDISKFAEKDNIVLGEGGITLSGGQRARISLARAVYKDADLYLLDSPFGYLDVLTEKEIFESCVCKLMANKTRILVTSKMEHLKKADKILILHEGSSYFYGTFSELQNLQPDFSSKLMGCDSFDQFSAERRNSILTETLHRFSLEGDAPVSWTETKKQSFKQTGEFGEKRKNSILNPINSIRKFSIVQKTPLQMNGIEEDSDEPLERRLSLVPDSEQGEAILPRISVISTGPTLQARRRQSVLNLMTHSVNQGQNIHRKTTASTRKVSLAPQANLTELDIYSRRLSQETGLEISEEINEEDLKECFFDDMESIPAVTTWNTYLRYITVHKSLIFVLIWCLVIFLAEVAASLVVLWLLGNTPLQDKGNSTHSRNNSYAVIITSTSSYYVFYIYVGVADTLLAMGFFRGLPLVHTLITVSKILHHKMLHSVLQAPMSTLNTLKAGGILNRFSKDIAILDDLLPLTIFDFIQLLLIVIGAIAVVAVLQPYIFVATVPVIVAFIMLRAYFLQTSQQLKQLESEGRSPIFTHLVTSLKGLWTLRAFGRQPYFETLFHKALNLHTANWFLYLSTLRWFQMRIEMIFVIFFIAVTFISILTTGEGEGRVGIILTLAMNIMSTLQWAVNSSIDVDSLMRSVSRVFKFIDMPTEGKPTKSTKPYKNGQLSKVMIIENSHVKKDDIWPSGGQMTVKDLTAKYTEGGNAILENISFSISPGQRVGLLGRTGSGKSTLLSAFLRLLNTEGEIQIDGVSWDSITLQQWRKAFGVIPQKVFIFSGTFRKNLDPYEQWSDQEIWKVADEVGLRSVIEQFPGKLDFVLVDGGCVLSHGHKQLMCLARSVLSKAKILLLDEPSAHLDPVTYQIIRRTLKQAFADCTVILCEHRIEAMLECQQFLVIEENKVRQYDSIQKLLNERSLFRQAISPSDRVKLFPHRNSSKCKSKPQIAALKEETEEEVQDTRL
As for `COc1ccc(F)c(-c2ccc(C(=O)NS(=O)(=O)c3cccc(N)n3)c(Oc3c(C)cc(C)cc3C)n2)c1` [Compound 1178, N-[(6-amino-2-pyridyl)sulfonyl]-6-(2-fluoro-5-methoxy-phenyl)-2-(2,4,6-trimethylphenoxy)pyridine-3-carboxamide], the EC30 entry is on record as “+++ (“+++” means <3 uM)”.
The same measure for `CC(=O)N1CCc2cc(Nc3cccc(S(=O)(=O)NC(=O)c4cccnc4N4CC(C)CC4(C)C)n3)ccc21` (stereo not drawn) [Compound 1877, N—[[6-[(1-acetylindolin-5-yl)amino]-2-pyridyl]sulfonyl]-2-(2,2,4-trimethylpyrrolidin-1-yl)pyridine-3-carboxamide]: “++ (“++” means between 3 uM and 10 uM)”; for `CC1CN(c2nc(C(C)(C)C)c(C3=CCCCO3)cc2C(=O)NS(=O)(=O)c2cccc(N)n2)C(C)(C)C1` (stereo not drawn) [Compound 1485, N-[(6-amino-2-pyridyl)sulfonyl]-6-tert-butyl-5-(3,4-dihydro-2H-pyran-6-yl)-2-(2,2,4-trimethylpyrrolidin-1-yl)pyridine-3-carboxamide]: “+++ (“+++” means <3 uM)”; for `CCn1cc(-c2ccc(C(=O)NS(=O)(=O)c3cccc(N)n3)c(Oc3c(C)cc(C)cc3C)n2)cn1` [Compound 1312, N-[(6-amino-2-pyridyl)sulfonyl]-6-(1-ethylpyrazol-4-yl)-2-(2,4,6-trimethylphenoxy)pyridine-3-carboxamide]: “++ (“++” means between 3 uM and 10 uM)”.
Turning to `CC(C)COc1cc(F)cc(-c2ccc(C(=O)NS(=O)(=O)c3cccc(N)n3)c(N3CC4CCCC4C3)n2)c1` (stereo not drawn) [Compound 857, 2-(3,3a,4,5,6,6a-hexahydro-1H-cyclopenta[c]pyrrol-2-yl)-N-[(6-amino-2-pyridyl)sulfonyl]-6-(3-fluoro-5-isobutoxy-phenyl)pyridine-3-carboxamide], the EC30 entry is recorded as “+++ (“+++” means <3 uM)”.
On to `Cc1cc(C)c(Oc2nc(-c3cccc(Cl)c3)ccc2C(=O)NS(=O)(=O)c2ccc[nH]c2=O)c(C)c1` [Compound 1095, 6-(3-chlorophenyl)-N-[(2-oxo-1H-pyridin-3-yl)sulfonyl]-2-(2,4,6-trimethylphenoxy)pyridine-3-carboxamide], for which the EC30 result is “++ (“++” means between 3 uM and 10 uM)”.
The same measure for `COc1ncccc1S(=O)(=O)NC(=O)c1cc2c(nc1Oc1ccc(C)cc1C)C(C)(C)CCC2` [Compound 1347, 2-(2,4-dimethylphenoxy)-N-[(2-methoxy-3-pyridyl)sulfonyl]-8,8-dimethyl-6,7-dihydro-5H-quinoline-3-carboxamide]: “+++ (“+++” means <3 uM)”; for `Cc1cc(C)cc(-c2ccc(C(=O)NS(=O)(=O)c3cccc(N)n3)c(N3C[C@@H](C)CC3(C)C)n2)c1` [Compound 1771, N-[(6-amino-2-pyridyl)sulfonyl]-6-(3,5-dimethylphenyl)-2-[(4S)-2,2,4-trimethylpyrrolidin-1-yl]pyridine-3-carboxamide]: “+++ (“+++” means <3 uM)”.
As for `CCOc1ccc(-c2ccc(C(=O)NS(=O)(=O)c3cccc(N)n3)c(N3CCC(C)CC3)n2)cc1` [Compound 910, N-[(6-amino-2-pyridyl)sulfonyl]-6-(4-ethoxyphenyl)-2-(4-methyl-1-piperidyl)pyridine-3-carboxamide], the EC30 entry is “+++ (“+++” means <3 uM)”.
On to `Cc1cc(C)c(Oc2nc(C3CCC(C(F)(F)F)CC3)ccc2C(=O)NS(=O)(=O)c2cccc(N)n2)c(C)c1` (stereo not drawn) [Compound 1519, N-[(6-amino-2-pyridyl)sulfonyl]-6-[4-(trifluoromethyl)cyclohexyl]-2-(2,4,6-trimethylphenoxy)pyridine-3-carboxamide], for which the EC30 result was “+++ (“+++” means <3 uM)”.
Turning to `COc1cccc(S(=O)(=O)NC(=O)c2ccc(-c3cc(F)cc(OCC(C)C)c3)nc2N2C[C@@H](C)CC2(C)C)c1` [Compound 1452, 6-(3-fluoro-5-isobutoxy-phenyl)-N-(3-methoxyphenyl)sulfonyl-2-[(4S)-2,2,4-trimethylpyrrolidin-1-yl]pyridine-3-carboxamide], the EC30 result is recorded as “+++ (“+++” means <3 uM)”.
In the case of `CC1CN(c2ncccc2C(=O)NS(=O)(=O)c2cccc(Nc3cc4ccccc4cn3)n2)C(C)(C)C1` (stereo not drawn) [Compound 1933, N—[[6-(3-isoquinolylamino)-2-pyridyl]sulfonyl]-2-(2,2,4-trimethylpyrrolidin-1-yl)pyridine-3-carboxamide] it was “+++ (“+++” means <3 uM)”; in that of `Cc1cc(C)c(Cn2nc(C(C)(C)C)cc2C(=O)NS(=O)(=O)c2ccncc2)c(C)c1` [Compound 1585, 5-tert-butyl-N-(4-pyridylsulfonyl)-2-[7(2,4,6-trimethylphenyl)methyl]pyrazole-3-carboxamide], “+++ (“+++” means <3 uM)”; in that of `CCOc1cc(F)ccc1-c1ccc(C(=O)NS(=O)(=O)c2cccnc2N)c(N2C[C@@H](C)CC2(C)C)n1` [Compound 1808, N-[(2-amino-3-pyridyl)sulfonyl]-6-(2-ethoxy-4-fluoro-phenyl)-2-[(4S)-2,2,4-trimethylpyrrolidin-1-yl]pyridine-3-carboxamide], “+++ (“+++” means <3 uM)”.
Turning to `Cc1ccc(-c2ccc(C(=O)NS(=O)(=O)c3cccc(N)n3)c(N3[C@H](C)CC[C@@H]3C)n2)cc1` [Compound 1078, N-[(6-amino-2-pyridyl)sulfonyl]-2-[(2R,5S)-2,5-dimethylpyrrolidin-1-yl]-6-(p-tolyl)pyridine-3-carboxamide], the EC30 result was “++ (“++” means between 3 uM and 10 uM)”.
In the case of `CC(C)COc1cc(F)cc(-c2ccc(C(=O)NS(=O)(=O)c3cccc(N)n3)c(N3CC[C@@H](C)C3)n2)c1` [Compound 1051, N-[(6-amino-2-pyridyl)sulfonyl]-6-(3-fluoro-5-isobutoxy-phenyl)-2-[(3R)-3-methylpyrrolidin-1-yl]pyridine-3-carboxamide] it was “+++ (“+++” means <3 uM)”; in that of `CCOc1cc(C)cc(-c2ccc(C(=O)NS(=O)(=O)c3ccc[nH]c3=O)c(N3C[C@@H](C)CC3(C)C)n2)n1` [Compound 1745, 6-(6-ethoxy-4-methyl-2-pyridyl)-N-[(2-oxo-1H-pyridin-3-yl)sulfonyl]-2-[(4S)-2,2,4-trimethylpyrrolidin-1-yl]pyridine-3-carboxamide], “+++ (“+++” means <3 uM)”; in that of `Cc1ccc(-c2ccc(C(=O)NS(=O)(=O)c3cccc(N)n3)c(N3CC(C)CC3(C)C)n2)nc1OCC(C)(C)C` (stereo not drawn) [Compound 1610, N-[(6-amino-2-pyridyl)sulfonyl]-6-[6-(2,2-dimethylpropoxy)-5-methyl-2-pyridyl]-2-(2,2,4-trimethylpyrrolidin-1-yl)pyridine-3-carboxamide], “+++ (“+++” means <3 uM)”.
With `CC(C)COc1cnn(-c2ccc(C(=O)NS(=O)(=O)c3cccc(N)n3)c(N3C[C@@H](C)CC3(C)C)n2)c1` [Compound 1443, N-[(6-amino-2-pyridyl)sulfonyl]-6-(4-isobutoxypyrazol-1-yl)-2-[(4S)-2,2,4-trimethylpyrrolidin-1-yl]pyridine-3-carboxamide], the EC30 result is given as “+++ (“+++” means <3 uM)”.
Consider `Cc1cc(C)c(Oc2nc(-c3ccc(OCc4ccccc4)cc3F)ccc2C(=O)NS(=O)(=O)c2cccc(N)n2)c(C)c1` [Compound 1113, N-[(6-amino-2-pyridyl)sulfonyl]-6-(4-benzyloxy-2-fluoro-phenyl)-2-(2,4,6-trimethylphenoxy)pyridine-3-carboxamide], for which the EC30 entry is on record as “+++ (“+++” means <3 uM)”.
On to `CC[C@]1(C)C[C@H](C)CN1c1nc(-c2cc(F)cc(OCC(C)C)c2)ccc1C(=O)NS(=O)(=O)c1cccc(N)n1` (single isomer, unassigned) [Compound 1817, N-[(6-amino-2-pyridyl)sulfonyl]-2-(2-ethyl-2,4-dimethyl-pyrrolidin-1-yl)-6-(3-fluoro-5-isobutoxy-phenyl)pyridine-3-carboxamide], for which the EC30 entry is recorded as “+++ (“+++” means <3 uM)”.
With `CC(C)COc1ccc(F)c(-c2ccc(C(=O)NS(=O)(=O)c3cccc(N)n3)c(N3CCC(C)CC3)n2)c1` [Compound 1109, N-[(6-amino-2-pyridyl)sulfonyl]-6-(2-fluoro-5-isobutoxy-phenyl)-2-(4-methyl-1-piperidyl)pyridine-3-carboxamide], the EC30 result is “++ (“++” means between 3 uM and 10 uM)”.
As to `CC(C)COc1cc(F)cc(-c2ccc(C(=O)NS(=O)(=O)c3cccc(N)n3)c(N3CCCC(C)(C)C3)n2)c1` [Compound 887, N-[(6-amino-2-pyridyl)sulfonyl]-2-(3,3-dimethyl-1-piperidyl)-6-(3-fluoro-5-isobutoxy-phenyl)pyridine-3-carboxamide], the EC30 entry is reported as “+++ (“+++” means <3 uM)”.
The same measure for `Cc1ccc(Oc2nc3c(cc2C(=O)NS(=O)(=O)c2nccnc2N)CCCC3(C)C)c(C)c1` [Compound 1239, N-(3-aminopyrazin-2-yl)sulfonyl-2-(2,4-dimethylphenoxy)-8,8-dimethyl-6,7-dihydro-5H-quinoline-3-carboxamide]: “+++ (“+++” means <3 uM)”.
In the case of `CC(C)COc1cc(F)cc(-c2ccc(C(=O)NS(=O)(=O)c3cccc(N)n3)c(N3CCC(C)(C)[C@H]3C)n2)c1` [Compound 1065, N-[(6-amino-2-pyridyl)sulfonyl]-6-(3-fluoro-5-isobutoxy-phenyl)-2-[(2R)-2,3,3-trimethylpyrrolidin-1-yl]pyridine-3-carboxamide] it was “+++ (“+++” means <3 uM)”; in that of `C[C@@H]1CN(c2nc(C3=CN(C(=O)OC(C)(C)C)CC3)ccc2C(=O)NS(=O)(=O)c2cccc(N)n2)C(C)(C)C1` [Compound 1684, tert-butyl 4-[5-[(6-amino-2-pyridyl)sulfonylcarbamoyl]-6-[(4S)-2,2,4-trimethylpyrrolidin-1-yl]-2-pyridyl]-2,3-dihydropyrrole-1-carboxylate], “+++ (“+++” means <3 uM)”.
In the case of `CC(C)COc1cc(F)cc(-c2ccc(C(=O)NS(=O)(=O)c3cccc(N)n3)c(N3CC(C(F)(F)F)CC3(C)C)n2)c1` (stereo not drawn) [Compound 1788, N-[(6-amino-2-pyridyl)sulfonyl]-2-[2,2-dimethyl-4-(trifluoromethyl)pyrrolidin-1-yl]-6-(3-fluoro-5-isobutoxy-phenyl)pyridine-3-carboxamide], the EC30 entry is on record as “+++ (“+++” means <3 uM)”.
